Reference: patent US10202604B2, “Methods of using microRNA-141” (Stemirna Therapeutics Co., Ltd., priority 2016, dated 2019)

Assays:
[1] = test system: EZH2; assay: EZH2 mRNA and protein levels; type: cell-based, human
Description: FIG. 6A: Putative binding site of miR-141 in EZH2 3′-UTR. […] FIG. 6C is a qPCR analysis of EZH2 mRNA levels in CD44^+ PCa cells. Bars, mean±SD. *P<0.05; **P<0.01. […] Bars, mean±SD. **P<0.01. […] Western blotting was performed in PC3 and Du145 cells transfected with NC (60 nM) or miR-141 (30 or 60 nM) oligos (72 h). Relative protein levels were measured by densitometry and normalized to GAPDH levels (indicated below). […] Du145 cells plated one day before were treated with 1, 2, and 5 μM of DZNep for 96 h and then cells were harvested for invasion assays. **P<0.01. Inset, WB showing reduced EZH2 proteins by DZNep. […] Du145 cells were transfected with 10 nM scramble siRNA (siCon) or EZH2-targeting siRNAs (siEZH2) or siEZH2 plus anti-miR-141 (30 nM). 48 h later, cells were harvested for invasion assays. Bars, mean±SD. **P<0.01. […] Du145 cells were co-transfected with 30 nM NC or miR-141 oligos together with empty vector or pCMV-EZH2 construct. After 48 h, cells were harvested for invasion assay. Bars, mean±SD. **P<0.01.
Total RNA was extracted using microRNA isolation kit (Life Technologies) according to the manufacturer's instructions. microRNA qPCRs were performed using TaqMan microRNA assays (Life Technologies). qPCR data for microRNAs were normalized to RNU48 whereas qPCR data for mRNAs were normalized to GAPDH.
For Boyden Chamber invasion assays, Biocoat Matrigel Invasion Chamber (BD, Franklin Lakes, N.J.) was employed following the manufacturer's instructions. Briefly, 100,000-200,000 of prostate cancer cells after transfection with […]/miR-141 oligos or infection with miR-141 over-expressing lentivirus were seeded into each well. Medium with 20% fetal bovine serum was used in the lower chamber as chemo-attractant. After 20 h, cells were fixed and stained using HEMA stain. Representative images were taken for each membrane and cells were counted. Migration assays were simultaneously performed in control wells using identical protocol with Transwell (Costar; 8 μl PET) without Matrigel. […]

[2] = test system: Human RAC1 3'-UTR; assay: 3'-UTR luciferase reporter assay; type: cell-based; details: Du145 cells; 30 nM miR-141 vs NC oligos
Description: (§1) Du145 cells transfected with NC or miR-141 oligos at the two doses and time intervals indicated were used in Western blotting. Indicated below are relative expression levels (normalized to respective GAPDH and compared to NC) of each protein determined by densitometric scanning of the individual bands. […] Bars, mean±SD. *P<0.05; **P<0.01. […] Du145 cells were co-transfected with NC or miR-141 oligos (30 nM) in combination with pcDNA3.1 (control) vector or pcDNA-RAC1 or pcDNA-CDC42 expression vector. After 48 h, cells were harvested for invasion assays. […] Du145 cells were infected with Lenti-141 or control lentivirus (MOI 10, 48 h) and then harvested to measure the Rho GTPase activities. Bars, mean±SD. *P<0.05. […] Du145 cells were transfected with the antisense oligos to NC or miR-141 (anti-141; 30 nM) and then used in invasion assays (FIG. 5E). In FIG. 5F and FIG. 5G Du145 cells were transfected with 10 nM of scramble siRNA control (siCon) or siRNAs targeting RAC1 (FIG. 5F) or CDC42 (FIG. 5G), either alone or in combination of anti-141 (30 nM). 48 h later, cells were harvested for invasion assays. Bars, mean±SD. *P<0.05; **P<0.01.
(§2) The human CD44 3′-UTR was amplified from Du145 genomic DNA using primers 5′-[…]-3′ (SEQ ID NO: 2) and 5′-[…]-3′ (SEQ ID NO: 3), as previously described (13). For site-specific mutagenesis, the region in the CD44 3′-UTR (SEQ ID NO: 4, shown with uracils) complementary to the seed sequence of miR-141 (SEQ ID NO: 1) were mutated (TAGTGTT to GGCGCGG; see FIG. 3D). The human EZH2 3′-UTR was amplified from Du145 genomic DNA using primers 5′-GAGCTC-CATCTGCTACCTCCTCCCC-3′ (SEQ ID NO: 6) and 5′-[…]-3′ (SEQ ID NO: 7). For site-specific mutagenesis, the region complementary to the seed sequence of miR-141 was mutated (AAAGTGTT to TATCACAA; see FIG. 6A). The PCR fragments were cloned into pGEM-T vector (Promega, Madison, Wis.) and sequence confirmed. Cells were plated in 24-well plates and co-transfected, using Lipofectamine 2000, with 1 μg firefly luciferase reporter plasmid and 5 ng Renilla plasmid (phRL-CMV) into which the 3′-UTR fragments were cloned. The luciferase activities were detected using Duo-luciferase reporter assay system (Promega). Human RAC1, CDC42, CDC42EP3, and ARPC5 3′-UTR luciferase reporter constructs were obtained from SwitchGear Genomics (Menlo Park, Calif.) and luciferase activities were measured per the manufacturer's instructions using LightSwitch luciferase assay kit.

[3] = test system: Human CDC42 3'-UTR; assay: 3'-UTR luciferase reporter assay; type: cell-based; details: Du145 cells; 30 nM miR-141 vs NC oligos
Description: as §1, §2

[4] = test system: Human ARPC5 3'-UTR; assay: 3'-UTR luciferase reporter assay; type: cell-based; details: Du145 cells; 30 nM miR-141 vs NC oligos
Description: as §1, §2

[5] = test system: Human CDC42EP3 3'-UTR; assay: 3'-UTR luciferase reporter assay; type: cell-based; details: Du145 cells; 30 nM miR-141 vs NC oligos
Description: as §1, §2

[6] = test system: CD44; assay: CD44 levels in endpoint tumors; type: in vivo; details: tumors from miR-141 overexpressing cells vs control tumors
[7] = test system: PPC-1 bulk cells or CD44+ DU145 cells; assay: EdU incorporation flow cytometry; type: cell-based, human; details: miR-141-overexpressing cells; 30 nM oligos 48 h, 10 μM EdU 2.5 h
Description: EdU (5-ethynyl-2′-deoxyuridine) is a nucleoside analog to thymidine and incorporated into DNA during active DNA synthesis. EdU incorporation assays were performed using Click-iT EdU Flow Cytometer Assays kit (C10418, Invitrogen) per manufacturer's instructions. Briefly, PPC-1 bulk cells or CD44^+ DU145 cells transfected with negative control or miR-141 oligos (30 nM) for 48 h were pulsed with 10 μM EdU for 2.5 h and harvested. After fixation and permeabilization, cells were processed for EdU immunostaining and also labeled with Pacific Blue azide (1:200) and finally analyzed on a flow cytometer.

In the case of “miR-141: miR-141 mirVana mimics (Life Technologies); microRNA-141 oligonucleotide may have SEQ ID NO: 1; in some experiments over-expressed by lentiviral vectors (UAACACUGUCUGGUAAAGAUGG; listed as RNA, further chemistry not given here) [miR-141 mirVana mimics (Life Technologies); in some experiments over-expressed by lentiviral vectors]”, the “EZH2 RNA level” value ([1]; miR-141 overexpression in prostate cancer cells) is reported as “significantly reduced”, the EZH2 protein level ([1]; miR-141 overexpression, PC3 and Du145, 30 or 60 nM, 72 h) is reported as “significantly reduced” and the “luciferase activity of RAC1 3'-UTR construct” value [2] is reported as “inhibited”. For the same substance, the “luciferase activity of CDC42 3'-UTR construct” value [3] was “inhibited”, the “luciferase activity of ARPC5 3'-UTR construct” value [4] was “inhibited” and the “luciferase activity of CDC42EP3 3'-UTR construct” value [5] was “inhibited”. The “CD44 mRNA level in endpoint tumors” value [6] was “lower levels”, the “CD44 protein level in endpoint tumors” value [6] was “lower levels” and the EdU incorporation [7] was “reduced”.
